# Measurements reported in US12171797B2, “Composition for ameliorating premenstrual syndrome symptoms, including chrysanthemum zawadskii extract” (GENENCELL INC., priority 2019, dated 2024).
# Tested on: hyperprolactinemia-induced female rats
# Assay: Hyperprolactinemia-induced (metoclopramide) animal model of premenstrual syndrome, serum prolactin and progesterone by ELISA
# Format: in vivo
# Conditions: 50 mg/kg metoclopramide to the abdominal cavity for 5 days
# Description: Metoclopramide is used as an antiemetic drug, and increases the secretion of prolactin by inhibiting dopamine secretion, and accordingly, it is known as a drug that inhibits the secretion of progesterone, luteinizing hormone, and follicle-stimulating hormone (Wang et al., 2014). Therefore, in the present invention, 50 mg/kg of metoclopramide was administered to the abdominal cavity of female rats for 5 days, after which hyperprolactinemia was induced to establish an animal model of premenstrual syndrome caused by hormone secretion disorder. Rats (females) were obtained from Raonbio, and were acclimatized for 1 week while general solid feed and water were freely supplied thereto. The environmental conditions of the animal room were set to a temperature of 23±3° C., a relative humidity of 50±10%, a lighting time of 12 hours (8 am to 8 pm), a ventilation frequency of 10 to 20 times/hour, and an illumination intensity of 150 to 300 Lux. During the experiment, the temperature and humidity of the animal room were automatically controlled using a thermo-hygrostat. […] After termination of the experiment, blood was collected, serum was isolated therefrom, and the amounts of secreted prolactin and progesterone in the serum were measured using an ELISA kit. […]
smiles,measurement,setting,value
"CCN(CC)CCNC(=O)c1cc(Cl)c(N)cc1OC [metoclopramide, Metoclopramide]",Prolactin levels in the serum after model induction,FIG. 1,increased
same,Progesterone levels in the serum after model induction (fraction of normal),FIG. 2,about ⅕
